Experimental data published in PubChem BioAssay AID330 (DTP/NCI, 2004).
“And” between values parts separate entries of the source, which are not always exact repeats. Identical values can stand only once. Inconclusive results and toxic doses are left out. Rule for the calls: active = survival T/C of 150% or more; inactive = T/C below 125% in these data.

Tested on: P388 leukemia ip, CD2F1 mice, survival T/C
Test: NCI In Vivo Anticancer Drug Screen. Data for tumor model P388 Leukemia (intraperitoneal) in CD2F1 (CDF1) mice
Conditions: endpoint: median survival time, higher = longer survival
How it was run: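 Mice carrying the transplanted tumor received test compound or vehicle. Survival was recorded in each group, and the value is the treated-group measurement divided by that of the vehicle-treated control group.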

[1] = dose: 12.5 mg/kg/injection, schedule: Q01DX005 (ip), vehicle: Klucel (hydroxypropylcellulose) (HPC)
[2] = dose: 25.0 mg/kg/injection, schedule: Q01DX005 (ip), vehicle: Klucel (hydroxypropylcellulose) (HPC)
[3] = dose: 50.0 mg/kg/injection, schedule: Q01DX005 (ip), vehicle: saline with Tween-80
[4] = dose: 50.0 mg/kg/injection, schedule: Q01DX009 (ip), vehicle: saline with Tween-80
[5] = dose: 100.0 mg/kg/injection, schedule: Q01DX009 (ip), vehicle: saline with Tween-80
[6] = dose: 200.0 mg/kg/injection, schedule: Q01DX009 (ip), vehicle: saline with Tween-80
[7] = dose: 50.0 mg/kg/injection, schedule: Q01DX009 (ip), vehicle: saline
[8] = dose: 100.0 mg/kg/injection, schedule: Q01DX009 (ip), vehicle: saline
[9] = dose: 50.0 mg/kg/injection, schedule: Q01DX009 (ip), vehicle: Klucel (hydroxypropylcellulose) (HPC)
[10] = dose: 100.0 mg/kg/injection, schedule: Q01DX009 (ip), vehicle: Klucel (hydroxypropylcellulose) (HPC)
[11] = dose: 200.0 mg/kg/injection, schedule: Q01DX009 (ip), vehicle: Klucel (hydroxypropylcellulose) (HPC)
[12] = dose: 12.5 mg/kg/injection, schedule: Q01DX009 (ip), vehicle: saline with Tween-80
[13] = dose: 25.0 mg/kg/injection, schedule: Q01DX009 (ip), vehicle: saline with Tween-80
[14] = dose: 400.0 mg/kg/injection, schedule: Q01DX009 (ip), vehicle: saline with Tween-80
[15] = dose: 60.0 mg/kg/injection, schedule: Q01DX005 (ip), vehicle: saline with Tween-80
[16] = dose: 120.0 mg/kg/injection, schedule: Q01DX005 (ip), vehicle: saline with Tween-80
[17] = dose: 240.0 mg/kg/injection, schedule: Q01DX005 (ip), vehicle: saline with Tween-80
[18] = dose: 12.5 mg/kg/injection, schedule: Q01DX009 (ip), vehicle: saline
[19] = dose: 25.0 mg/kg/injection, schedule: Q01DX009 (ip), vehicle: saline
[20] = dose: 200.0 mg/kg/injection, schedule: Q01DX009 (ip), vehicle: saline

Measured: T/C

O=C(NCCCl)Oc1cc(Cl)c(Cl)cc1Cl
inactive: [1] 120 % of control | [2] 111 % of control | dose: 100.0 mg/kg/injection, schedule: Q01DX001 (ip), vehicle: Klucel (hydroxypropylcellulose) (HPC) 102 % of control

CC1c2ccccc2CC(CCN(C)C)c2ccccc21 (configuration not stated)
inactive: dose: 6.25 mg/kg/injection, schedule: Q01DX005 (ip), vehicle: saline with Tween-80 101 % of control and 102 % of control and 106 % of control | dose: 12.5 mg/kg/injection, schedule: Q01DX005 (ip), vehicle: saline with Tween-80 101 % of control and 109 % of control (2×) | dose: 25.0 mg/kg/injection, schedule: Q01DX005 (ip), vehicle: saline with Tween-80 109 % of control and 97 % of control | [3] 110 % of control

CC1(C)CN=C(C2=C(O)c3ccccc3C2=O)C1
inactive: dose: 100.0 mg/kg/injection, schedule: Q04DX003 (ip), vehicle: saline with Tween-80 91 % of control | dose: 200.0 mg/kg/injection, schedule: Q04DX003 (ip), vehicle: saline with Tween-80 93 % of control | dose: 400.0 mg/kg/injection, schedule: Q04DX003 (ip), vehicle: saline with Tween-80 90 % of control

Cc1cc2c(c3ncccc13)OCN(Cc1ccc(Cl)cc1)C2
inactive: [4] 94 % of control | [5] 95 % of control | [6] 94 % of control

C(=Nc1cccnc1)c1ccc(C=Nc2cccnc2)cc1
inactive: [7] 108 % of control | [8] 104 % of control

CN=C(N)N/N=C/COc1ccc(C)cc1
inactive: dose: 60.0 mg/kg/injection, schedule: Q01DX005 (ip), vehicle: saline 92 % of control | dose: 120.0 mg/kg/injection, schedule: Q01DX005 (ip), vehicle: saline 94 % of control

CCOc1ccc(C[Se][Se]Cc2ccc(OCC)cc2)cc1
inactive: [9] 109 % of control | [10] 91 % of control

CCO/C([O-])=C(\C=N\S(=O)(=O)c1ccc(C)cc1)[n+]1ccccc1
inactive: [9] 104 % of control | [10] 105 % of control | [11] 108 % of control

OCCN(CCO)CC(O)c1cc(-c2ccccc2)nc2ccccc12 (configuration not stated)
inactive: [1] 103 % of control | [2] 94 % of control | dose: 50.0 mg/kg/injection, schedule: Q01DX005 (ip), vehicle: Klucel (hydroxypropylcellulose) (HPC) 102 % of control and 103 % of control | dose: 100.0 mg/kg/injection, schedule: Q01DX005 (ip), vehicle: Klucel (hydroxypropylcellulose) (HPC) 110 % of control

Cc1c2c(Cc3ccccc3)nccc2c(C)c2c1c1ccccc1n2Cc1ccccc1
inactive: dose: 6.25 mg/kg/injection, schedule: Q04DX003 (ip), vehicle: distilled water + Tween-80 87 % of control | dose: 12.5 mg/kg/injection, schedule: Q04DX003 (ip), vehicle: distilled water + Tween-80 88 % of control | dose: 50.0 mg/kg/injection, schedule: Q04DX003 (ip), vehicle: distilled water + Tween-80 86 % of control

COc1cc(C)c2c(=O)c3c(oc2c1)C(=O)c1c(O)c(OC)cc(O)c1C3=O
inactive: [12] 115 % of control | [13] 108 % of control | [4] 114 % of control | [5] 115 % of control | [6] 103 % of control

CC(C)(C)c1ccc(OS(=O)(=O)c2cccc([N+](=O)[O-])c2)cc1
inactive: [5] 95 % of control | [6] 100 % of control | [14] 100 % of control

CCCS(=O)(=O)CCC(=O)c1cccs1
inactive: dose: 100.0 mg/kg/injection, schedule: Q04DX002 (ip), vehicle: saline 104 % of control | dose: 200.0 mg/kg/injection, schedule: Q04DX002 (ip), vehicle: saline 100 % of control | dose: 400.0 mg/kg/injection, schedule: Q04DX002 (ip), vehicle: saline 101 % of control

COc1ccc2[nH]c(C)c(CN(C(C)=O)C(C)=O)c(=O)c2c1
inactive: [15] 103 % of control | [16] 112 % of control | [17] 86 % of control

CN(C)CCCNC(=O)/C=C\C(=O)O
inactive: [18] 107 % of control | [19] 100 % of control | [7] 109 % of control and 93 % of control | [8] 94 % of control | [20] 94 % of control | dose: 400.0 mg/kg/injection, schedule: Q01DX009 (ip), vehicle: saline 97 % of control

O=C(O)C(O)C(O)C1[O][Sb][O]C1C(=O)O (configuration not stated)
inactive: dose: 12.5 mg/kg/injection, schedule: Q01DX005 (ip), vehicle: saline 110 % of control | [3] 100 % of control and 101 % of control and 94 % of control | dose: 100.0 mg/kg/injection, schedule: Q01DX005 (ip), vehicle: saline with Tween-80 100 % of control and 108 % of control and 109 % of control | dose: 200.0 mg/kg/injection, schedule: Q01DX005 (ip), vehicle: saline with Tween-80 111 % of control and 117 % of control | dose: 400.0 mg/kg/injection, schedule: Q01DX005 (ip), vehicle: saline with Tween-80 118 % of control and 120 % of control

CCCCCCCC[N+]1(CC)CCCCC1
inactive: dose: 3.12 mg/kg/injection, schedule: Q01DX009 (ip), vehicle: saline 104 % of control | dose: 6.25 mg/kg/injection, schedule: Q01DX009 (ip), vehicle: saline 109 % of control | [18] 109 % of control

CCOC(=O)C[N+]12CCC34c5ccccc5N5C(=O)CC6OCC=C(C1)C(CC32)C6C54 (configuration not stated)
inactive: [12] 113 % of control | [13] 106 % of control

O=[N+]([O-])c1ccc(/C=C(/c2ccc([N+](=O)[O-])o2)S(=O)(=O)C(Cl)(Cl)Cl)cc1
inactive: [19] 100 % of control | [7] 89 % of control | [8] 91 % of control | dose: 100.0 mg/kg/injection, schedule: Q01DX009 (ip), vehicle: suspension in saline 86 % of control

O=C1CCC(C(Sc2ccccc2)(Sc2ccccc2)Sc2ccccc2)C1 (configuration not stated)
inactive: [9] 97 % of control | [10] 90 % of control | [11] 89 % of control

C/C=C/C=C1/OC(C)=C(C(C)=O)C1=O
inactive: dose: 12.5 mg/kg/injection, schedule: Q01DX009 (ip), vehicle: saline + Tween-80 + alcohol 117 % of control | dose: 25.0 mg/kg/injection, schedule: Q01DX009 (ip), vehicle: saline + Tween-80 + alcohol 114 % of control | dose: 100.0 mg/kg/injection, schedule: Q01DX009 (ip), vehicle: saline + Tween-80 + alcohol 112 % of control | [5] 124 % of control | dose: 200.0 mg/kg/injection, schedule: Q01DX009 (ip), vehicle: saline + Tween-80 + alcohol 123 % of control

O=C1C(CN2CCCCC2)=C(O)C(c2ccccc2)N1c1ccccc1 (configuration not stated)
inactive: [15] 96 % of control | [16] 95 % of control | [17] 97 % of control

CNc1ccc(C=C2c3ccccc3-c3ccccc32)cc1
inactive: dose: 12.5 mg/kg/injection, schedule: Q01DX001 (ip), vehicle: saline with Tween-80 102 % of control | dose: 25.0 mg/kg/injection, schedule: Q01DX001 (ip), vehicle: saline with Tween-80 105 % of control | dose: 50.0 mg/kg/injection, schedule: Q01DX001 (ip), vehicle: saline with Tween-80 112 % of control | dose: 100.0 mg/kg/injection, schedule: Q01DX001 (ip), vehicle: saline with Tween-80 106 % of control

C=C(COC(C)=O)[C@@H](C)C(=O)C1OCOC(C2CC(=O)NC(=O)C2)[C@@H]1OC(C)=O (some centres not stated)
inactive: dose: 0.01 mg/kg/injection, schedule: Q01DX009 (ip), vehicle: distilled water + alcohol 98 % of control | dose: 0.03 mg/kg/injection, schedule: Q01DX009 (ip), vehicle: distilled water + alcohol 102 % of control | dose: 0.06 mg/kg/injection, schedule: Q01DX009 (ip), vehicle: distilled water + alcohol 102 % of control | dose: 0.12 mg/kg/injection, schedule: Q01DX009 (ip), vehicle: distilled water + alcohol 102 % of control

CC(=O)NCNC(C)=O
inactive: [7] 100 % of control | [8] 97 % of control | [20] 108 % of control

O=C(O)C(O)C(O)C(O)C(O)c1nn[nH]n1 (configuration not stated)
inactive: dose: 100.0 mg/kg/injection, schedule: Q01DX001 (ip), vehicle: saline 101 % of control | dose: 200.0 mg/kg/injection, schedule: Q01DX001 (ip), vehicle: saline 98 % of control | dose: 400.0 mg/kg/injection, schedule: Q01DX001 (ip), vehicle: saline 93 % of control

C/C(=N/NC(=O)c1ccccc1)c1ccccc1O
inactive: [4] 104 % of control | [5] 100 % of control | [6] 104 % of control | [14] 107 % of control
